Measurements published in patent US20120270914A1, “SPLIT-LUCIFERASE C-MYC SENSOR AND USES THEREOF” (THE BOARD OF TRUSTEES OF THE LELAND STANFORD JUNIOR …, priority 2011, published 2012).

Experiments:
c-Myc [1] = test: Western blot analysis of endogenous phospho c-Myc in 293T cells; assay type: cell-based, human
Description: Western Blot Analysis: Total cell lysates were collected using 1× cell lysis buffer (Cell Signaling), as directed by the manufacturer. The protein concentration was determined using the BioRad DC protein assay. SDS/PAGE analysis of 50 μg of protein was transferred to an lmmobilon-P membrane (Millipore). Anti-phosphor-c-Myc (Thr58/Ser62) and anti-c-Myc antibody (Cell Signaling) were used to visualize the phospho c-Myc and c-Myc protein, respectively, as directed by the manufacturer. Anti-FLuc-HRP antibody was used to detect the FL fragments, as directed by the manufacturer (Sigma-Aldrich). β-actin protein was used as a loading control and detected by anti-β-actin antibody (Sigma-Aldrich). […] Protein levels were determined by quantifying the band intensities on Western blot analysis using ImageJ's ROI manager.
Drug Inhibition Assay: SKBR3 stable cells constitutively expressing the sensor system (SK ST) or the full-length FL (SK FST) were treated with PD98059 (Cell Signaling) for 2 h, U0126 (Cell Signaling) for 1 h, and purified AT (Sequoia Research Products) for 16 h at the indicated concentrations and imaged with D-Luc in the IVIS 50 BLI system (FIGS. 6A and 6B, and FIGS. 10A-12D). […] The correlation coefficient between the fold change of normalized FL activity and the fold change of normalized phospho c-Myc level (phospho c-Myc/β-actin) was determined based on the R^2 value.

c-Myc [2] = test: Western blot analysis of endogenous phospho c-Myc in SKBR3 cells; assay type: cell-based, human; conditions: for endogenous c-Myc phosphorylation level: Western blot
Description: (§1) FIGS. 26A and 26B illustrate the inhibition of endogenous c-Myc. FIG. 26A: Western blot analysis of SKBR3 cells after NTZ treatment was performed using phospho c-Myc, c-Myc protein, and β-actin antibodies. […] The fold-change of phospho c-Myc level was plotted against the log scale of NTZ concentration.
Western Blot Analysis: Total cell lysates were collected using 1× cell lysis buffer (Cell Signaling), as directed by the manufacturer. The protein concentration was determined using the BioRad DC protein assay. SDS/PAGE analysis of 50 μg of protein was transferred to an lmmobilon-P membrane (Millipore). Anti-phosphor-c-Myc (Thr58/Ser62) and anti-c-Myc antibody (Cell Signaling) were used to visualize the phospho c-Myc and c-Myc protein, respectively, as directed by the manufacturer. Anti-FLuc-HRP antibody was used to detect the FL fragments, as directed by the manufacturer (Sigma-Aldrich). β-actin protein was used as a loading control and detected by anti-β-actin antibody (Sigma-Aldrich). Immunoblots were developed using the Pierce ECL Kit, as directed by the manufacturer. Protein levels were determined by quantifying the band intensities on Western blot analysis using ImageJ's ROI manager.
(§2) Drug Inhibition Assay: SKBR3 stable cells constitutively expressing the sensor system (SK ST) or the full-length FL (SK FST) were treated with PD98059 (Cell Signaling) for 2 h, U0126 (Cell Signaling) for 1 h, and purified AT (Sequoia Research Products) for 16 h at the indicated concentrations and imaged with D-Luc in the IVIS 50 BLI system (FIGS. 6A and 6B, and FIGS. 10A-12D). In addition, 293T stable cells constitutively expressing the sensor system (293T ST) or the full-length FL (293T FST) were treated with AT for 16 h at the indicated concentrations (FIGS. 6A and 6B, and FIGS. 13A-13D) and imaged with D-Luc in the IVIS 50 system. The photon output of FL imaging was normalized to the total protein content, and the FL activity of SK ST or 293T ST was normalized to that of SK FST or 293T FST, respectively. SKBR3 and 293T cells were treated as above and lysed for Western blot analysis of phospho c-Myc, c-Myc, and β-actin proteins. The correlation coefficient between the fold change of normalized FL activity and the fold change of normalized phospho c-Myc level (phospho c-Myc/β-actin) was determined based on the R^2 value.

c-Myc [3] = conditions: Shachaf et al. 2007; cited from earlier work
[4] = test system: SK ST and SK FST xenografts; test: BLI of SK ST and SK FST subcutaneous xenografts in nude mice under AT treatment; assay type: in vivo
Description: The mice underwent gavage with AT (20 μL, 1.25 mM; n=5) or with PBS (20 μL; n=5) every other day.
BLI of Living Mice: BLI of mouse xenografts was performed with the IVIS Spectrum optical imaging system (Xenogen) as described previously (Chan et al. (2008) Cancer Res. 68:216-226, incorporated herein by refrence in its entirety), with some modifications. At 4 h after transient transfection with the indicated constructs (FIG. 7A), 5×10^6 SKBR3 cells were implanted subcutaneously into the indicated locations of nude mice (nu/nu; n=3). At 16 h after cell implantation, a Clz PBS (0.3 μg/μL; 100 μL) solution was injected intravenously for RL imaging. Then, 8 h later, FL imaging was acquired with D-Luc PBS solution (45 μg/μL; 100 μL) via intraperitoneal injection. Subsequently, 5×10^6 each of SK ST and SK FST cells were implanted subcutaneously into nude mice (nu/nu; n=10) as indicated (FIG. 8A). FL imaging was performed 1 day after the implantation and every other day thereafter. After each FL imaging, half of the mice underwent gavage with AT PBS solution (1.25 mM; 20 μL), and the other half did so with PBS only (20 μL). After 23 d of treatment, the mice were killed, and xenograft tissue samples were collected for Western blot analysis of phospho c-Myc, c-Myc, and α-tubulin proteins.

c-Myc [5] = test: Drug inhibition assay: BLI of SKBR3 stable cells constitutively expressing the c-Myc sensor (SK ST), normalized to full-length FL cells (SK FST); assay type: cell-based, human; conditions: for reduction in complemented FL activity compared between drugs: SK ST cells normalized to SK FST cells; for complemented FL activity: SK ST cells, after normalization to effect on FL activity of SK FST cells, PD98059 2 h, U0126 1 h, AT 16 h
Description: (§3) To test the ability of the sensor to monitor c-Myc phosphorylation levels on drug treatment, the SKBR3 and 293T stable cells (SK ST and 293T ST) were established that constitutively express the sensor. SKBR3 and 293T stable cells were also constructed that constitutively express the full-length FL (SK FST and 293T FST) for the control of direct drug effect on FL activity.
(§4) Luciferase Activity Assay: BLI of luciferase activity in intact cells was performed as described previously (Hann (2006) Semin Cancer Biol 16(4):288-302). In brief, 24 h after transfection, culture medium was replaced with a PBS solution (pH 7.0) of 45 μg/mL D-Luc for FL imaging or of 10 μg/mL of Clz for RL imaging with the IVIS BLI system (Xenogen). Images were acquired at 2-min intervals until the peak signal was reached. The photon output of FL or RL imaging in transiently transfected cells was normalized to co-expressed RL or FL activity, respectively, measured by an in vitro luminometry assay as described previously (Chan et al. (2008) Cancer Res. 68:216-226), then normalized to the total protein in the cell lysates, measured by the BioRad DC protein assay as directed by the manufacturer. In stable cells, the photon output of FL imaging was normalized to the total protein in the cell lysates.
as §2

c-Myc [6] = test: Drug inhibition assay: BLI of 293T stable cells expressing the c-Myc sensor (293T ST), normalized to 293T FST; assay type: cell-based, human; conditions: 293T ST cells; after normalization to FL activity of 293T FST cells; AT 16 h
Description: as §3
as §4, with “lysates. […]” for “lysates.”

c-Myc [7] = test: Hydrodynamic injection of the c-Myc sensor and BLI in Eμ-tTA/Tet-O-MYC transgenic mice; assay type: in vivo
Description: To test the in vivo application of the sensor system, SKBR3 cells were first transiently transfected separately with equal DNA molar amounts of the vectors pcDNA3.1(+), GSK 35-433-CFL/NFL-c-Myc or GSK 35-433-CFL/NFL-c-Myc T851 and implanted them subcutaneously in different locations in each nude mouse (n=3; FIG. 7A). hRL was also co-expressed for control of transfection efficiency. […] However, on intraperitoneal injection of the FL substrate D-Luciferin (D-Luc), xenografts carrying pcDNA3.1(+) had very low complemented FL activity, whereas those carrying GSK 35-433-CFL/NFL-c-Myc had 10.6-fold higher activity. Those carrying GSK 35-433-CFL/NFL-c-Myc T851 had 4.7-fold higher activity after normalization to their hRL activity (FIG. 7C). Thus, the complemented FL activity determined by the phosphorylation status of NFL-c-Myc can be imaged and quantified in a mouse xenograft model. The sensor system was also transiently expressed in the liver of two transgenic mice using hydrodynamic injection. These mice carried a liver-specific transgene of c-Myc under control of the Tet system (Shachaf et al. (2007) Blood 110: 2674-2684).
Both mice had doxycycline discontinued, followed by a 29-day course of treatment with AT in one mouse and with PBS in the other mouse. […] This signal reduction was consistent with the reduced endogenous c-Myc phosphorylation and the histological changes in the liver tissue samples (FIG. 7E).
Hydrodynamic Injection: Eμ-tTA/Tet-O-MYC transgenic mice (Shachaf et al. (2007) Blood 110: 2674-2684) (n=2) were removed from doxycycline treatment at 8 wk of age and underwent gavage with AT or PBS as described above. At 29 d after treatment, these two mice underwent imaging studies to characterize the liver phospho c-Myc level after hydrodynamic injection (Frame et al., (2001) Mol. Cell 7: 1321-1327) of the c-Myc sensor. […]

c-Myc [8] = test: Phospho c-Myc level in sarcoma cells; assay type: cell-based; conditions: read-out: IC50, inhibition of phospho c-Myc level
Description: as §1

[9] = test system: SK-ST subcutaneous tumor xenograft; test: SK-ST subcutaneous tumor xenograft mouse model under NTZ treatment; assay type: in vivo; conditions: NTZ vs CMC treated groups, up to 27 days after implantation
Description: FIGS. 27A and 27B illustrate the efficacy of NTZ in a SK-ST subcutaneous tumor xenograft mouse model. FIG. 27A: SK-ST stable cells were subcutaneously implanted as indicated and treated with NTZ or CMC. Representative images of FL imaging at indicated days of treatment are shown. FIG. 27B: Photon output of SK-ST cells with NTZ or CMC treatment is plotted against days after implantation. * P<0.05. […] FIG. 28A: Representative photographs of removed tumors from CMC or NTZ treated mice 27 days after implantation. FIG. 28B: Plot of caliper measured tumor sizes of NTZ or CMC treated groups at different days after implantation. *P<0.05, **P<0.01. FIGS. 29A and 29B illustrate immunohistochemistry and western blot analysis of NTZ treated tumor samples. FIG. 29A: Representative images of H&E, Ki67 and caspase-3 IHC staining of tumor tissue samples from each group. FIG. 29B: Western blot analysis of tumor tissue samples using phospho c-Myc, c-Myc and α-tubulin antibodies.

c-Myc [10] = test: Phospho c-Myc level in lymphoma cells; assay type: cell-based; conditions: read-out: IC50, inhibition of phospho c-Myc level
Description: as §1

c-Myc [11] = conditions: Hydbring et al. 2009; cited from earlier work
[12] = test system: NFL-c-MycS62A mutant sensor; test: BLI of SKBR3 cells transiently transfected with the S62A mutant sensor; assay type: cell-based, human; conditions: PD98059 1 h
Description: FIG. 14A is a digital image showing the NFL-c-Myc WT construct or the NFL-c-MycS62A mutant construct transiently transfected into SKBR3 cells with GSK 35-433-CFL construct and subjected to PD98059 of indicated concentration for 1 h, followed by BLI.
FIG. 14B is a graph showing FL activity normalized to co-transfected RL activity and the total protein content and plotted against the drug concentration.
These differential signal inhibitions also were correlated with the decreased endogenous c-Myc phosphorylation level, as shown in FIG. 6A.

CC(C)c1c(C(=O)Nc2ccccc2)c(-c2ccccc2)c(-c2ccc(F)cc2)n1CC[C@@H](O)C[C@@H](O)CC(=O)O [AT, Atorvastatin]
endogenous c-Myc phosphorylation level (c-Myc [1]): increase
endogenous c-Myc phosphorylation level (c-Myc [2]): decreased
c-Myc-induced lymphomagenesis (c-Myc [3]): preventing
phosphorylation of c-Myc (c-Myc [3]): reduce
c-Myc phosphorylation levels in tumor tissue samples ([4]; 23 d after implantation, Western blot): decreased
sensor signal (complemented FL activity of SK ST normalized to SK FST) ([4]; AT group): sustained decrease
tumor size ([4]; AT vs PBS group): no detectable difference
tumor growth ([4]; eventual effect of AT): reduced tumor growth
complemented FL activity of SK ST xenografts ([4]; from 10 d after implantation, gavage AT 20 μL 1.25 mM every other day): increased only slightly
FL activity of SK FST xenografts ([4]; up to about 18 d after implantation): higher in the PBS-treated group compared with the AT-treated group
reduction in complemented FL activity compared between drugs (c-Myc [5]): greater reduction in complemented FL activity with lower drug concentrations than did U0126
complemented FL activity (c-Myc [5]): dose-dependent reduction
complemented FL activity (c-Myc [6]): dose-dependent increase
liver tumor size (c-Myc [7]; 29-day treatment, AT vs PBS, one mouse each): no significant difference
endogenous c-Myc phosphorylation in liver tissue samples (c-Myc [7]; Western blot after 29-day treatment): reduced
complemented FL activity in liver (c-Myc [7]; on addition of D-Luc, AT vs PBS treated mouse): much lower

CC(=O)Oc1ccccc1C(=O)Nc1ncc([N+](=O)[O-])s1 [NTZ, nitazoxanide]
IC50 (c-Myc [2]; read-out: IC50, inhibition of phospho c-Myc level): 122 nM
luciferase activity when cells are exposed to nitazoxanide (c-Myc [5]; in vitro validation of the assay system): decrease in luciferase activity
IC50 (c-Myc [8]): 12 nM
tumor growth (caliper measured tumor sizes) [9]: inhibition of tumor growth
IC50 (c-Myc [10]): 440 nM

COc1cccc(-c2cc(=O)c3ccccc3o2)c1N [PD98059]
c-Myc phosphorylation level in vitro (c-Myc [11]): decrease
endogenous c-Myc phosphorylation level (c-Myc [2]): decreased
response of mutant sensor to phosphorylation inhibition of c-Myc [12]: did not respond
complemented FL activity (c-Myc [5]): dose-dependent reduction

N#CC(=C(/N)Sc1ccccc1N)/C(C#N)=C(\N)Sc1ccccc1N [U0126]
c-Myc phosphorylation level in vitro (c-Myc [11]): decrease
endogenous c-Myc phosphorylation level (c-Myc [2]): decreased
reduction in complemented FL activity compared between drugs (c-Myc [5]): greater reduction than PD98059
complemented FL activity (c-Myc [5]): dose-dependent reduction
